Reference: patent US7112553B1, “Pesticidal indazole or benzotriazole derivatives” (Syngenta Limited, priority 1999, dated 2006)

What was measured:
[1] = system: Puccinia recondita (PUCCRT) on wheat; conditions: in vivo
[2] = system: Phytophthora infestans lycopersici (PHYTIN) on tomatoes; assay type: in vivo; conditions: 100 ppm foliar spray; tomatoes inoculated one day after chemical application (Prot)
[3] = system: Pyricularia oryzae (PYRIOR) on rice; assay type: in vivo; conditions: 100 ppm foliar spray; rice inoculated one day after chemical application (Prot)
[4] = system: Uncinula necator (UNCINE) on vines; conditions: in vivo

## CCCn1nc2ccc(CC(=O)Nc3snc(C)c3Cl)cc2n1 [Sample 1, N-(4-chloro-3-methylisothiazol-5-yl)-(2-propylbenzotriazol-5-yl)acetamide]
[1]
  PRCO (Percentage Reduction from Control) PUCCRT Prot: 100%
[2]
  PRCO (Percentage Reduction from Control) PHYTIN Prot: 100%
[3]
  PRCO (Percentage Reduction from Control) PYRIOR Prot: 100%

## Cc1nsc(NC(=O)Cc2ccc3nn(C)nc3c2)c1Cl [Sample 2]
[3]
  PRCO (Percentage Reduction from Control) PYRIOR Prot: 87%

## Cc1nsc(NC(=O)Cc2ccc3nn(Cc4ccc(F)cc4)nc3c2)c1Cl [Sample 4]
[3]
  PRCO (Percentage Reduction from Control) PYRIOR Prot: 92%

## Cc1nsc(NC(=O)Cc2ccc3nn(CC(F)(F)F)nc3c2)c1Cl [Sample 8]
[3]
  PRCO (Percentage Reduction from Control) PYRIOR Prot: 100%

## CCCCCn1nc2ccc(CC(=O)Nc3snc(C)c3Cl)cc2n1 [Sample 9]
[1]
  PRCO (Percentage Reduction from Control) PUCCRT Prot: 99%
[2]
  PRCO (Percentage Reduction from Control) PHYTIN Prot: 100%
[3]
  PRCO (Percentage Reduction from Control) PYRIOR Prot: 100%

## Cc1nsc(NC(=O)Cc2ccc3nn(-c4ccc(C(F)(F)F)cc4Cl)nc3c2)c1Cl [Sample 11]
[3]
  PRCO (Percentage Reduction from Control) PYRIOR Prot: 100%

## CCCC(C)n1nc2ccc(CC(=O)Nc3snc(C)c3Cl)cc2n1 (stereo not shown) [Sample 30]
[1]
  PRCO (Percentage Reduction from Control) PUCCRT Prot: 100%
[4]
  PRCO (Percentage Reduction from Control) UNCINE Erad: 100%
[2]
  PRCO (Percentage Reduction from Control) PHYTIN Prot: 100%

## CCC(C)n1nc2ccc(CC(=O)Nc3snc(C)c3Cl)cc2n1 (stereo not shown) [Sample 31]
[1]
  PRCO (Percentage Reduction from Control) PUCCRT Prot: 100%
[4]
  PRCO (Percentage Reduction from Control) UNCINE Erad: 100%
[2]
  PRCO (Percentage Reduction from Control) PHYTIN Prot: 100%

## CCCn1nc2ccc(CC(=O)N=c3sn(COCC)c(C)c3Cl)cc2n1 [Sample 34, N-[2-ethoxymethyl-4-chloro-3-methylisothiazolin-5-ylidene]-(2-propylbenzo-triazol-5-yl)acetamide]
[4]
  PRCO (Percentage Reduction from Control) UNCINE Erad: 100%
[2]
  PRCO (Percentage Reduction from Control) PHYTIN Prot: 81%
[3]
  PRCO (Percentage Reduction from Control) PYRIOR Prot: 93%
